Source: US11053204B2, “Pyrimidinyloxy benzene derivatives as herbicides” (FMC Corporation, priority 2015, dated 2021)

Assays:
Assay type in all cases: in vivo
[1] = test system: johnsongrass (Sorghum halepense); experiment: Test C preemergence, plant response rating
[2] = test system: pigweed, palmer (palmer pigweed, Amaranthus palmeri); experiment: Test C preemergence, plant response rating
kochia (Kochia scoparia) = experiment: Test C preemergence, plant response rating
[3] = test system: wild poinsettia (Euphorbia heterophylla); experiment: Test C preemergence, plant response rating
[4] = test system: windgrass (Apera spica-venti); experiment: Test C preemergence, plant response rating
[5] = test system: oat, wild (wild oat Avena fatua); experiment: Test C preemergence, plant response rating
[6] = test system: Canada thistle (Cirsium arvense); experiment: Test C postemergence, plant response rating; conditions: for Canada Thistle plant response rating: scale 0 to 100 (0 no effect, 100 complete control)
How it was run: (§1)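 After sowing in loam–sand blend or silt loam, pots were sprayed preemergence; separately grown 1- to 4-leaf plants were sprayed postemergence. Following 13 to 15 d under greenhouse conditions, injury was rated visually on a 0 to 100 scale.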

[7] = test system: buckwheat, wild (wild buckwheat, Polygonum convolvulus); experiment: Test C postemergence, plant response rating; conditions: for Buckwheat, Wild plant response rating: scale 0 to 100 (0 no effect, 100 complete control)
How it was run: as §1

[8] = test system: field poppy (Papaver rhoeas); experiment: Test C postemergence, plant response rating; conditions: for Field Poppy plant response rating: scale 0 to 100 (0 no effect, 100 complete control)
How it was run: as §1

[9] = test system: field violet (Viola arvensis); experiment: Test C postemergence, plant response rating; conditions: for Field Violet plant response rating: scale 0 to 100 (0 no effect, 100 complete control)
How it was run: as §1

[10] = test system: geranium, cutleaf (cutleaf geranium, Geranium dissectum); experiment: Test C postemergence, plant response rating; conditions: for Geranium, Cutleaf plant response rating: scale 0 to 100 (0 no effect, 100 complete control)
How it was run: as §1

[11] = test system: johnsongrass (Sorghum halepense); experiment: Test C postemergence, plant response rating; conditions: for Johnsongrass plant response rating: scale 0 to 100 (0 no effect, 100 complete control)
How it was run: as §1

[12] = test system: nightshade (eastern black nightshade, Solanum ptycanthum); experiment: Test C postemergence, plant response rating; conditions: for Nightshade plant response rating: scale 0 to 100 (0 no effect, 100 complete control)
How it was run: as §1

[13] = test system: pigweed, palmer (palmer pigweed, Amaranthus palmeri); experiment: Test C postemergence, plant response rating; conditions: for Pigweed, Palmer plant response rating: scale 0 to 100 (0 no effect, 100 complete control)
How it was run: as §1

[14] = test system: speedwell (bird's-eye speedwell, Veronica persica); experiment: Test C postemergence, plant response rating; conditions: for Speedwell plant response rating: scale 0 to 100 (0 no effect, 100 complete control)
How it was run: as §1

[15] = test system: surinam grass (Brachiaria decumbens); experiment: Test C postemergence, plant response rating
How it was run: as §1

[16] = test system: wild mustard (Sinapis arvensis); experiment: Test C postemergence, plant response rating
How it was run: as §1

[17] = test system: wild poinsettia (Euphorbia heterophylla); experiment: Test C postemergence, plant response rating; conditions: for Poinsettia, Wild plant response rating: scale 0 to 100 (0 no effect, 100 complete control)
How it was run: as §1

[18] = test system: windgrass (Apera spica-venti); experiment: Test C postemergence, plant response rating
How it was run: as §1

[19] = 125 g ai/ha, scale 0 to 100 (0 no effect, 100 complete control)

SMILES: FC(F)(F)CCCc1c(Br)cccc1Oc1ncc(Cl)cn1 [Compound 89]
- Plant response rating, Johnsongrass ([1]; 31 g ai/ha, scale 0 to 100): 40
- Plant response rating, Johnsongrass ([1]; 62 g ai/ha, scale 0 to 100): 30
- Plant response rating, Johnsongrass ([1]; 125 g ai/ha, scale of 0 to 100): 60
- Plant response rating, Pigweed, Palmer ([2]; 31 g ai/ha, scale 0 to 100): 70
- Plant response rating, Pigweed, Palmer ([2]; 62 g ai/ha, scale 0 to 100): 90
- Plant response rating, Pigweed, Palmer ([2]; 125 g ai/ha, scale of 0 to 100): 98
- Plant response rating, Kochia (kochia (Kochia scoparia); 31 g ai/ha, scale 0 to 100): 60
- Plant response rating, Kochia (kochia (Kochia scoparia); 62 g ai/ha, scale 0 to 100): 85
- Plant response rating, Kochia (kochia (Kochia scoparia); 125 g ai/ha, scale of 0 to 100): 90
- Plant response rating, Poinsettia, Wild ([3]; 31 g ai/ha, scale 0 to 100): 0
- Plant response rating, Poinsettia, Wild ([3]; 62 g ai/ha, scale 0 to 100): 20
- Plant response rating, Poinsettia, Wild ([3]; 125 g ai/ha, scale of 0 to 100): 40
- Plant response rating, Windgrass ([4]; 31 g ai/ha, scale 0 to 100): 50
- Plant response rating, Windgrass ([4]; 62 g ai/ha, scale 0 to 100): 65
- Plant response rating, Windgrass ([4]; 125 g ai/ha, scale of 0 to 100): 100
- Plant response rating, Oat, Wild ([5]; 31 g ai/ha, scale 0 to 100): 10
- Plant response rating, Oat, Wild ([5]; 62 g ai/ha, scale 0 to 100): 30
- Plant response rating, Oat, Wild ([5]; 125 g ai/ha, scale of 0 to 100): 10
- Plant response rating, Canada Thistle ([6]; 16 g ai/ha, scale of 0 to 100): 80
- Plant response rating, Canada Thistle ([6]; 31 g ai/ha, scale 0 to 100): 80
- Canada Thistle plant response rating ([6]; 62 g ai/ha): 85
- Canada Thistle plant response rating ([6]; 125 g ai/ha): 85
- Plant response rating, Buckwheat, Wild ([7]; 16 g ai/ha, scale of 0 to 100): 70
- Plant response rating, Buckwheat, Wild ([7]; 31 g ai/ha, scale 0 to 100): 75
- Buckwheat, Wild plant response rating ([7]; 62 g ai/ha): 75
- Buckwheat, Wild plant response rating ([7]; 125 g ai/ha): 85
- Plant response rating, Field Poppy ([8]; 16 g ai/ha, scale of 0 to 100): 90
- Plant response rating, Field Poppy ([8]; 31 g ai/ha, scale 0 to 100): 95
- Field Poppy plant response rating ([8]; 62 g ai/ha): 100
- Field Poppy plant response rating ([8]; 125 g ai/ha): 100
- Plant response rating, Field Violet ([9]; 16 g ai/ha, scale of 0 to 100): 100
- Plant response rating, Field Violet ([9]; 31 g ai/ha, scale 0 to 100): 100
- Field Violet plant response rating ([9]; 62 g ai/ha): 100
- Field Violet plant response rating ([9]; 125 g ai/ha): 100
- Plant response rating, Geranium, Cutleaf ([10]; 16 g ai/ha, scale of 0 to 100): 35
- Plant response rating, Geranium, Cutleaf ([10]; 31 g ai/ha, scale 0 to 100): 35
- Geranium, Cutleaf plant response rating ([10]; 62 g ai/ha): 50
- Geranium, Cutleaf plant response rating ([10]; 125 g ai/ha): 55
- Plant response rating, Johnsongrass ([11]; 16 g ai/ha, scale of 0 to 100): 5
- Plant response rating, Johnsongrass ([11]; 31 g ai/ha, scale 0 to 100): 10
- Johnsongrass plant response rating ([11]; 62 g ai/ha): 10
- Johnsongrass plant response rating ([11]; 125 g ai/ha): 85
- Plant response rating, Nightshade ([12]; 16 g ai/ha, scale of 0 to 100): 75
- Plant response rating, Nightshade ([12]; 31 g ai/ha, scale 0 to 100): 90
- Nightshade plant response rating ([12]; 62 g ai/ha): 95
- Nightshade plant response rating ([12]; 125 g ai/ha): 95
- Plant response rating, Pigweed, Palmer ([13]; 16 g ai/ha, scale of 0 to 100): 55
- Plant response rating, Pigweed, Palmer ([13]; 31 g ai/ha, scale 0 to 100): 75
- Pigweed, Palmer plant response rating ([13]; 62 g ai/ha): 80
- Pigweed, Palmer plant response rating ([13]; 125 g ai/ha): 85
- Plant response rating, Speedwell ([14]; 16 g ai/ha, scale of 0 to 100): 95
- Plant response rating, Speedwell ([14]; 31 g ai/ha, scale 0 to 100): 100
- Speedwell plant response rating ([14]; 62 g ai/ha): 100
- Speedwell plant response rating ([14]; 125 g ai/ha): 100
- Plant response rating, Surinam Grass ([15]; 16 g ai/ha, scale of 0 to 100): 10
- Plant response rating, Surinam Grass ([15]; 31 g ai/ha, scale 0 to 100): 10
- Surinam Grass plant response rating [15, 19]: 20
- Plant response rating, Mustard, Wild ([16]; 16 g ai/ha, scale of 0 to 100): 100
- Mustard, Wild plant response rating ([16]; 62 g ai/ha, scale 0 to 100 (0 no effect, 100 complete control)): 100
- Plant response rating, Poinsettia, Wild ([17]; 16 g ai/ha, scale of 0 to 100): 55
- Plant response rating, Poinsettia, Wild ([17]; 31 g ai/ha, scale 0 to 100): 60
- Poinsettia, Wild plant response rating ([17]; 62 g ai/ha): 80
- Poinsettia, Wild plant response rating ([17]; 125 g ai/ha): 90
- Plant response rating, Windgrass ([18]; 16 g ai/ha, scale of 0 to 100): 10
- Plant response rating, Windgrass ([18]; 31 g ai/ha, scale 0 to 100): 10
- Windgrass plant response rating [18, 19]: 35
